Article PMC9841523 (Journal of Medicinal Chemistry, 2022)

How the values were obtained:
Test in all cases: Eurofins Safety Screen 44
Conditions in all cases: read-out: % Inhibition of Control Values
[1] = biological target: T1, N neuronal α4β2 (h) (agonist radioligand) (Homo sapiens, UniProt P17787+P43681); assay type: binding
T1 construct: purchased ActivX Biosciences (KiNativ)

[2] = biological target: T2, V1a(h) (agonist radioligand) (Homo sapiens, UniProt P37288); assay type: binding
T2 construct: purchased ActivX Biosciences (KiNativ)
T2 sequence (P37288 whole entry): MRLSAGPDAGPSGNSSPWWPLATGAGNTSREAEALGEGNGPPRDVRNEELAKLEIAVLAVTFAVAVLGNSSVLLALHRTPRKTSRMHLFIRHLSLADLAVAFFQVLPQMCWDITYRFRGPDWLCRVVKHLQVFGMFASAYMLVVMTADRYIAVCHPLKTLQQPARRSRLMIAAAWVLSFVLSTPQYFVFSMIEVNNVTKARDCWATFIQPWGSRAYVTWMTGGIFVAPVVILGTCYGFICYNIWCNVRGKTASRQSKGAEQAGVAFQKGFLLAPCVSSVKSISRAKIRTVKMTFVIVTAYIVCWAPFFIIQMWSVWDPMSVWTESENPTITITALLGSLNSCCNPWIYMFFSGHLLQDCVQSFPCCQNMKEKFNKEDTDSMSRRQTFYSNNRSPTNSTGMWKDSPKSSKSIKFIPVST

acetylcholinesterase (h) = biological target: T3, acetylcholinesterase (h) (Homo sapiens, UniProt P22303); assay type: biochemical
T3 construct: Eurofins (ran the panel)
T3 sequence (P22303 32-614): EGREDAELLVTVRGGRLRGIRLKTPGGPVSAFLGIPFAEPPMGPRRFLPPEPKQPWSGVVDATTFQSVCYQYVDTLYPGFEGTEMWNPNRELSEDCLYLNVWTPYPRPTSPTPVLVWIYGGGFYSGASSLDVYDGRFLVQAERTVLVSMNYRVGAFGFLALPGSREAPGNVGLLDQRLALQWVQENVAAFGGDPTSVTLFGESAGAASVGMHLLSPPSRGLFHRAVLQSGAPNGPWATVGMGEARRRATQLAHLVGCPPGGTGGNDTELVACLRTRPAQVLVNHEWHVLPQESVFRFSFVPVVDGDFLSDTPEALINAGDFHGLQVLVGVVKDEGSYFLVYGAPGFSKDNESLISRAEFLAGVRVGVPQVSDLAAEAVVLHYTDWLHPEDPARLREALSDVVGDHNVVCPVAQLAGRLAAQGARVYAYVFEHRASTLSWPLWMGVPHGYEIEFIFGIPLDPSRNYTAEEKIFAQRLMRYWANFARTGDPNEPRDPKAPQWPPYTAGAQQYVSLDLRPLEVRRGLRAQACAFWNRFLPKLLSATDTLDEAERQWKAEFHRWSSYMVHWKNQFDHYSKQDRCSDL

[3] = biological target: T4, 5-HT2B(h) (agonist radioligand) (Homo sapiens, UniProt P41595); assay type: binding
T4 construct: purchased ActivX Biosciences (KiNativ)
T4 sequence (P41595 whole entry): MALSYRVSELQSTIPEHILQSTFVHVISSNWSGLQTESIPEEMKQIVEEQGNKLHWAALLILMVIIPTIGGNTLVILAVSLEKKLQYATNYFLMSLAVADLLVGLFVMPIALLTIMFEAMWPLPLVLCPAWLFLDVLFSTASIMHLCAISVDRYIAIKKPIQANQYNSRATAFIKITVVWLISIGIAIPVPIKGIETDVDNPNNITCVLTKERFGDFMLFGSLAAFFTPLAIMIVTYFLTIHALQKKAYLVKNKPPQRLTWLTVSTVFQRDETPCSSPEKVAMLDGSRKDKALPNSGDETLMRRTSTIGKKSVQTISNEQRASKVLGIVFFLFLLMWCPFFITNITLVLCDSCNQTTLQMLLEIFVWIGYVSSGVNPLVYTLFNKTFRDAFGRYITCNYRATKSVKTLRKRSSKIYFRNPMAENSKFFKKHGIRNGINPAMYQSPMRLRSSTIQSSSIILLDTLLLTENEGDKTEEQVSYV

[4] = biological target: T5, CCK1 (CCKA) (h) (agonist radioligand) (Homo sapiens, UniProt P32238); assay type: binding
T5 construct: purchased ActivX Biosciences (KiNativ)
T5 sequence (P32238 whole entry): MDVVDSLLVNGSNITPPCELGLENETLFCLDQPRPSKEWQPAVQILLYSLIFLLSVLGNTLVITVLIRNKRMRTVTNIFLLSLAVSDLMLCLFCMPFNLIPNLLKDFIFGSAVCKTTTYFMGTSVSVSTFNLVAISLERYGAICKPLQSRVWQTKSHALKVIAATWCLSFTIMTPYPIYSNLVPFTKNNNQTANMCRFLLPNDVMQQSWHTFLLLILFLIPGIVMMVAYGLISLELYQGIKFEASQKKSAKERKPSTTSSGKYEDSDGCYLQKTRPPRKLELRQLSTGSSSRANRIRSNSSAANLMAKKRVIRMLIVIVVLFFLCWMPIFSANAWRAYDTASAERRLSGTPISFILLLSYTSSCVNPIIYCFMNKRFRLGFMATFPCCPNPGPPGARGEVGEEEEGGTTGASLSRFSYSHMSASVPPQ

[5] = biological target: T6, 5-HT transporter (h) (antagonist radioligand) (Homo sapiens, UniProt P31645); assay type: binding
T6 construct: Eurofins (ran the panel)
T6 sequence (P31645 whole entry): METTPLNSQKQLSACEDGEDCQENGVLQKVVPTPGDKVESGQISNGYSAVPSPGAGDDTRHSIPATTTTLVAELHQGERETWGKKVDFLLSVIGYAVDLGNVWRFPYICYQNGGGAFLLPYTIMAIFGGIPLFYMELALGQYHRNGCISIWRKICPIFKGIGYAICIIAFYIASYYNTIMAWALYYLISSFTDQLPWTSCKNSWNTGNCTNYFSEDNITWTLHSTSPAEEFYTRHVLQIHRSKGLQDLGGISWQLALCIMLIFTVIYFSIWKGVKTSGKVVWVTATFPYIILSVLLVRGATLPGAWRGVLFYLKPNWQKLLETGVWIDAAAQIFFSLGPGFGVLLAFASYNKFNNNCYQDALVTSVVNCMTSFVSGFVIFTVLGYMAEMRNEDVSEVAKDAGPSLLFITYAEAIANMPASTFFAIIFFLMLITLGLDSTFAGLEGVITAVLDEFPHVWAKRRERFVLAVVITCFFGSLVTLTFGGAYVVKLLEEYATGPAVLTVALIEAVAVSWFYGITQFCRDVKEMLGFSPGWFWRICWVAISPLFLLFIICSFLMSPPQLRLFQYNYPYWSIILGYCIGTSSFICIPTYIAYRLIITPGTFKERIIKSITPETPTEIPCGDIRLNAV

T1 sequence (P43681 29-627 limits assumed): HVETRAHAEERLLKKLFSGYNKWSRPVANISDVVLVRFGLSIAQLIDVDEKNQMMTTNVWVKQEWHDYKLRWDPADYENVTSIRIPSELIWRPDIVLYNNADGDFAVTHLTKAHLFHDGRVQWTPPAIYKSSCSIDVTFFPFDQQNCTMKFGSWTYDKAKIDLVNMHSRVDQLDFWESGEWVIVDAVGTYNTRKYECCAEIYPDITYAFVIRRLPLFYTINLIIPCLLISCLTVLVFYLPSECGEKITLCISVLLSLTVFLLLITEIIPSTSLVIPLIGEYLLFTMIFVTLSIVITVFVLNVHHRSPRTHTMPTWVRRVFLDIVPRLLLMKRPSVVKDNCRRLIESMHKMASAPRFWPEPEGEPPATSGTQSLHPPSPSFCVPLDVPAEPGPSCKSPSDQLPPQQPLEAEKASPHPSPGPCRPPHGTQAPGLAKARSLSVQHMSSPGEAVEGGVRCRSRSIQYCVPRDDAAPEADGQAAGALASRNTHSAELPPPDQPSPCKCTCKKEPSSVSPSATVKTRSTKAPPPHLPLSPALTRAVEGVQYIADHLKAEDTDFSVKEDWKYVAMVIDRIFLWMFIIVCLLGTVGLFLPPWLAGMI
T1 sequence (P17787 26-502): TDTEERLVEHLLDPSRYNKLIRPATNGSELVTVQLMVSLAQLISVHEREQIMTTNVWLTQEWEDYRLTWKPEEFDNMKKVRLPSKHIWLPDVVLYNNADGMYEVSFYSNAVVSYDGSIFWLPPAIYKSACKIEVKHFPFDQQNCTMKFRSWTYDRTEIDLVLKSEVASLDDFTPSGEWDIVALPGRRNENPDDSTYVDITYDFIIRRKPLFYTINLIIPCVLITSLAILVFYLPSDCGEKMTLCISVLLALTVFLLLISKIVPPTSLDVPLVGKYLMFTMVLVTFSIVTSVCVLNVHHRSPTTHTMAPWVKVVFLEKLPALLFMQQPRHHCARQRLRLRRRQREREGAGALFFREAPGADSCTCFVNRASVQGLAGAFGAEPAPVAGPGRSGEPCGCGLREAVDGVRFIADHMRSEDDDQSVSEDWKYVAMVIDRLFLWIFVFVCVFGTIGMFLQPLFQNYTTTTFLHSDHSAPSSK

Which results are given for CO[C@H]1C[C@@H]2CC[C@@H](C)[C@@](O)(O2)C(=O)C(=O)N2CCCC[C@H]2C(=O)O[C@H]([C@H](C)C[C@@H]2CC[C@@H](OC(=O)NCCOCCOCCOCCOCCOCCOCCOCCOCCC(=O)N3CCc4cc(Cn5nc(-c6ccc7oc(N)nc7c6)c6c(N)ncnc65)ccc4C3)[C@H](OC)C2)C[C@@H](O)[C@H](C)/C=C(\C)[C@@H](O)[C@@H](OC)C(=O)[C@H](C)C[C@H](C)/C=C/C=C/C=C/1C [compound 38]?
inhibition at 10 µM [1]: -8.5%; inhibition at 10 µM [2]: 6.5%; inhibition at 10 µM (acetylcholinesterase (h)): -15.4%; inhibition at 10 µM [3]: -14.5%; inhibition at 10 µM [4]: -51.3%; inhibition at 10 µM [5]: -4.5%
